In patent US12568969B2, “Pyridine compounds for controlling invertebrate pests” (FMC Corporation, priority 2020, dated 2026):

Tests used:
Type in all cases: in vivo
[1] = test system: diamondback moth (Plutella xylostella (L.)); assay: Test A: control of diamondback moth on mustard plant, spray; details: sprayed at 250 ppm; assessed after 6 days
Experimental: (§1) Test compounds were formulated using a solution containing 10% acetone, […] and 300 ppm Activator 909 non-ionic surfactant (Loveland Products, Loveland, Colorado, USA). The formulated compounds were applied in 1 mL of liquid through an atomizer nozzle positioned 1.27 cm (0.5 inches) above the top of each test unit. Test compounds were sprayed at the rates indicated, and each test was replicated three times.
For evaluating control of diamondback moth (Plutella xylostella (L.)) the test unit consisted of a small open container with a 12-14-day-old mustard plant inside. This was pre-infested with ˜50 neonate larvae that were dispensed into the test unit via corn cob grits using an inoculator. The larvae moved onto the test plant after being dispensed into the test unit.
Test compounds were formulated and sprayed at 250 ppm. After spraying of the formulated test compound, each test unit was allowed to dry for 1 hour and then a black, screened cap was placed on top. The test units were held for 6 days in a growth chamber at 25° C. and 70% relative humidity. Plant feeding damage was then visually assessed based on foliage consumed, and larvae were assessed for mortality.

[2] = test system: corn planthopper (Peregrinus maidis (Ashmead)); assay: whole plant or invertebrate; details: Peregrinus maidis, 144 h, 6 days; for mortality at 10 ppm: sprayed at 10 ppm; for mortality at 50 ppm: sprayed at 50 ppm; for mortality at 250 ppm: sprayed at 250 ppm
Summary of the method: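 Corn plants 3-4 days old were sprayed at 250, 50 and/or 10 ppm in 10% acetone with 300 ppm non-ionic surfactant, three replicates, contact and/or systemic exposure. After 1 h drying, ~15-20 nymphs (18-to-21-day-old) were added; mortality assessed visually after 6 days at 22-24° C, 50-70% RH.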

[3] = test system: potato leafhopper (Empoasca fabae (Harris)); assay: Test C: control of potato leafhopper on Soleil bean plant, spray; details: Empoasca fabae, 144 h; sprayed at 250 ppm; 6 days
Experimental: as §1
For evaluating control of potato leafhopper (Empoasca fabae (Harris)) through contact and/or systemic means, the test unit consisted of a small open container with a 5-6-day-old Soleil bean plant (primary leaves emerged) inside. White sand was added to the top of the soil, and one of the primary leaves was excised prior to application of the test compound.
[…] After spraying of the formulated test compound, the test units were allowed to dry for 1 hour before they were post-infested with 5 potato leafhoppers (18-to-21-day-old adults). A black, screened cap was placed on the top of the test unit, and the test units were held for 6 days in a growth chamber at 20° C. and 70% relative humidity. Each test unit was then visually assessed for insect mortality.

[4] = test system: cotton melon aphid (Aphis gossypii (Glover)); assay: whole plant or invertebrate; details: Aphis gossypii, 144 h, 6 days; for mortality at 50 ppm: sprayed at 50 ppm; for mortality at 250 ppm: sprayed at 250 ppm
Summary of the method: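 Compounds were formulated in a solution of 10% acetone, […] and 300 ppm Activator 909 non-ionic surfactant and sprayed as 1 mL through an atomizer nozzle 1.27 cm (0.5 inches) above each test unit, with three replicates. Units were pre-infested with 30-40 aphids on leaf pieces via the cut-leaf method, soil covered with sand, then kept 6 days at 19° C. and 70% relative humidity before visual mortality scoring.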

[5] = test system: Western Flower Thrips (Frankliniellla occidentalis (Pergande)); assay: Test G: control of Western Flower Thrips on Soleil bean plant, spray; details: sprayed at 250 ppm; 6 days
Experimental: as §1
For evaluating control of the Western Flower Thrips (Frankliniellla occidentalis (Pergande)) through contact and/or systemic means, the test unit consisted of a small open container with a 5-7-day-old Soleil bean plant inside.
Test compounds were formulated and sprayed at 250 ppm. After spraying, the test units were allowed to dry for 1 hour, and then about 60 thrips (adults and nymphs) were added to each unit. A black, screened cap was placed on top, and the test units were held for 6 days at 25° C. and 45-55% relative humidity. Each test unit was then visually assessed for plant damage and insect mortality.

[6] = test system: green peach aphid (Myzus persicae (Sulzer)); assay: Test D: control of green peach aphid on radish plant, spray; details: Myzus persicae, 144 h, 6 days; for mortality at 250 ppm: sprayed at 250 ppm
Summary of the method: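 Radish plants (12-15 days old) pre-infested with 30-40 aphids, sprayed with compound in 10% acetone/water with 300 ppm non-ionic surfactant at 250 and/or 50 ppm, three replicates. Held 6 days at 19-21 °C, 50-70% relative humidity, then mortality scored visually.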

[7] = test system: sweetpotato whitefly (Bemisia tabaci (Gennadius)); assay: Test F: control of sweetpotato whitefly on cotton plant, spray; details: 312 h, 13 days; for mortality at 250 ppm: sprayed at 250 ppm
Summary of the method: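 Cotton plants 12–14 days old, trimmed to one true leaf and carrying at least 15 whitefly eggs, were sprayed at 250 and/or 50 ppm in acetone/water with non-ionic surfactant, three replicates. After 13 days at 28° C and 50-70% relative humidity, insect mortality was scored visually.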

SMILES | control efficacy (40% or less feeding damage and/or 100% mortality) [1] | mortality at 10 ppm [2] [%] | mortality at 50 ppm [2] [%] | mortality at 250 ppm [2] [%] | mortality at 250 ppm [3] [%] | mortality at 50 ppm [4] [%] | mortality at 250 ppm [4] [%] | control efficacy (30% or less plant damage and/or 100% mortality) [5] | mortality at 250 ppm [6] [%] | mortality at 250 ppm [7] [%] | mortality at 50 ppm ([6]; sprayed at 50 ppm) [%] | mortality at 50 ppm ([7]; sprayed at 50 ppm) [%]
Fc1cncc(-c2ncco2)c1C(F)c1ccc(OC(F)(F)F)cc1 (centres unmarked) [Compound 32] | very good to excellent levels of control efficacy | ≥ 80 | ≥ 80 | ≥ 80 | ≥ 80 | ≥ 80 | ≥ 80 | very good to excellent levels of control efficacy | – | – | – | –
Fc1cncc(-c2nccs2)c1C(F)c1ccc(OC(F)(F)F)cc1 (centres unmarked) [Compound 33] | very good to excellent levels of control efficacy | ≥ 80 | ≥ 80 | ≥ 80 | ≥ 80 | ≥ 80 | ≥ 80 | very good to excellent levels of control efficacy | – | – | – | –
Fc1cncc(-c2nccs2)c1C(F)c1ccc(OC(F)(F)F)cc1 (centres unmarked) [Compound 36] | very good to excellent levels of control efficacy | – | – | – | – | – | – | very good to excellent levels of control efficacy | ≥ 80 | ≥ 70 | – | –
COC(c1ccc(OC(F)(F)F)cc1)c1c(F)cncc1-n1cccn1 (centres unmarked) [Compound 37] | – | – | ≥ 80 | ≥ 80 | ≥ 80 | ≥ 80 | ≥ 80 | – | ≥ 80 | ≥ 70 | – | –
Fc1cncc(-c2ccno2)c1C(F)c1ccc(OC(F)(F)F)cc1 (centres unmarked) [Compound 41] | – | ≥ 80 | ≥ 80 | – | – | – | ≥ 80 | very good to excellent levels of control efficacy | – | – | – | –
FC(c1ccc(OC(F)(F)F)cc1)c1c(Cl)cncc1-c1nccs1 (centres unmarked) [Compound 50] | very good to excellent levels of control efficacy | ≥ 80 | ≥ 80 | – | – | ≥ 80 | ≥ 80 | very good to excellent levels of control efficacy | – | – | – | –
FC(c1ccc(SC(F)(F)F)cc1)c1ccncc1-n1nccn1 (centres unmarked) [Compound 69] | – | ≥ 80 | ≥ 80 | ≥ 80 | ≥ 80 | ≥ 80 | ≥ 80 | – | ≥ 80 | ≥ 70 | ≥ 80 | ≥ 70
